In patent US9776972B2, “Pyrazole derivatives as arginine methyltransferase inhibitors and uses thereof” (priority 2013, dated 2017):
Read-outs that look alike come from different tables or passages of the source.

Legend:
[1] = test system: mono-methyl arginine in RKO cells; test: RKO Methylation Assay, In Cell Western (ICW) for mono-methyl arginine and DNA content; assay type: cell-based; conditions: Homo sapiens, RKO, 72 h
Outline: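 After fixation, mono-methyl arginine and DNA (DRAQ5) were measured by infrared In-Cell Western imaging at 700/800 nm in RKO cells exposed to compounds for 72 hours. Percent activation used DMSO wells as minimum and 20 μM reference compound as maximum; EC30 curves fitted on triplicate wells.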

human PRMT8 = human PRMT8 (Homo sapiens, UniProt Q9NR22); test: PRMT8 Biochemical Assay (3H-SAM Flashplate, peptide substrate); conditions: single experiment or average of multiple experiments
Outline: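 Methylation of a biotin-tagged histone H4 peptide (residues 31-45) by recombinant PRMT8 was measured as 3H transfer from 3H-SAM, after a 30 min room-temperature compound preincubation in Bicine buffer pH 7.6. Reactions were quenched with unlabelled SAM to 400 uM final, then bound counts were read by streptavidin Flashplate. IC50 came from a Hill fit of % inhibition relative to max and SAH min controls.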

[2] = RKO cells, 72 hours, mono-methyl arginine, percent activation, single experiment or average of multiple experiments, read-out: EC30 (In Cell Western data, Numerical)
[3] = read-out: EC30 (In Cell Western data, Numerical, μM)

Chain of human PRMT8 (Q9NR22 whole entry, the tested form may be a part): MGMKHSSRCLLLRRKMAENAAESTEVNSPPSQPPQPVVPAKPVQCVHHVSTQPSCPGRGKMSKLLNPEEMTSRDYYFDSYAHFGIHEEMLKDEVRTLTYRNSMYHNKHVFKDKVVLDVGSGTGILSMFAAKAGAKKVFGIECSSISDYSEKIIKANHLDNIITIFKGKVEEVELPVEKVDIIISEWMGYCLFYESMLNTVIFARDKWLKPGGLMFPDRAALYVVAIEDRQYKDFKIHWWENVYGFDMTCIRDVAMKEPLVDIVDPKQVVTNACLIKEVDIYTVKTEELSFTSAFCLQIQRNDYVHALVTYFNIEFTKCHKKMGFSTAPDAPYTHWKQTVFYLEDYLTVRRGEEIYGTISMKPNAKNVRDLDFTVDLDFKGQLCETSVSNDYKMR

| SMILES | EC30 [1, 2] | IC50 (human PRMT8) | EC30 [1, 3] |
| --- | --- | --- | --- |
| CNCCN(C)Cc1c[nH]nc1-c1ccc(OC2CCOCC2)cc1 [Compound 175] | 0.174 µM | – | – |
| CC(C)Cc1ccc(-c2c[nH]nc2CN(C)CCN)cc1 [Compound 170] | 1.39 µM | 160 nM | – |
| CN(CCN)Cc1c[nH]nc1-c1ccc(Oc2ccccc2)c(C#N)c1 [Compound 202] | 0.941 µM | 187 nM | – |
| C=CCn1cc(CN(C)CCNC)c(-c2ccc(OC(C)C)cc2)n1 [Compound 218] | 5.74 µM | – | – |
| COc1ccc(-c2n[nH]cc2CN(C)CCN)c(C(F)(F)F)c1 [Compound 154] | > 20 µM | 6170 nM | – |
| CCNC(=O)c1cccc(-c2n[nH]cc2CN(C)CCN)c1 [Compound 197] | > 20 µM | 2100 nM | – |
| CN(CCN)Cc1c[nH]nc1-c1cccc(N(C)C)c1 [Compound 149] | 4.32 µM | 910 nM | – |
| CNCCN(C)Cc1cn(Cc2ccccc2)nc1-c1ccc(OC(C)C)cc1 [Compound 217] | 2.15 µM | – | – |
| CNCCN(C)Cc1cnn(C(C)C)c1-c1ccc(F)cc1 [Compound 16] | – | – | > 20 µM |
| Cc1ccc(F)cc1-c1n[nH]cc1CN(C)CCN [Compound 159] | 8.56 µM | 879 nM | – |
| CN(CCN)Cc1c[nH]nc1-c1ccc(OC2CCOCC2)cc1 [Compound 178] | 0.954 µM | – | – |
| CCN(C)C(=O)c1ccc(-c2n[nH]cc2CN(C)CCN)cc1 [Compound 163] | > 20 µM | 1430 nM | – |
| CNCCN(C)Cc1n[nH]cc1-c1ccc(Oc2ccccc2)cc1 [Compound 204] | 0.801 µM | 69.3 nM | – |
| COc1cc(F)ccc1-c1n[nH]cc1CN(C)CCN [Compound 151] | 9.73 µM | 1370 nM | – |
| CNC(=O)c1cc(-c2n[nH]cc2CN(C)CCN)ccc1Oc1ccccc1 [Compound 227] | 15 µM | 660 nM | – |
| CN(CCN)Cc1c[nH]nc1-c1ccc(OCCO)cc1 [Compound 194] | 17 µM | 374 nM | – |
| CN(CCN)Cc1c[nH]nc1-c1cc(C#N)ccc1Cl [Compound 147] | > 20 µM | – | – |
| CNCCN(C)Cc1cnn(C2CC2)c1-c1ccc(F)cc1 [Compound 14] | 3.35 µM | 1380 nM | – |
| Cc1ccccc1-c1n[nH]cc1CN(C)CCN [Compound 161] | 14.9 µM | 2100 nM | – |
| CN(CCN)Cc1c[nH]nc1-c1ccc(C(F)(F)F)cc1F [Compound 148] | 7.3 µM | 809 nM | – |
| CNCCN(C)Cc1cn(C)nc1-c1ccc(OC(C)C)c(Cl)c1 [Compound 206] | – | 349 nM | 1.16 µM |
| CNCCN(C)Cc1cn[nH]c1-c1ccc(C#N)cc1 [Compound 17] | – | 89.1 nM | > 20 µM |

| SMILES | EC30 [1, 2] | IC50 (human PRMT8) | EC30 [1, 3] |
| --- | --- | --- | --- |
| CNCCN(C)Cc1cn(C)nc1-c1ccc(Oc2ccccc2)cc1 [Compound 207] | 2.31 µM | 627 nM | – |
| CNCCN(C)Cc1n[nH]cc1-c1ccc(OC(C)C)c(F)c1 [Compound 210] | 0.268 µM | 182 nM | – |
| CC(C)Oc1ccc(-c2nn(C)cc2CN(C)CCN)cc1 [Compound 176] | 0.882 µM | – | – |
| C=CCn1ncc(CN(C)CCNC)c1-c1ccc(OC(C)C)cc1 [Compound 219] | 0.919 µM | – | – |
| CN(CCN)Cc1c[nH]nc1-c1ccc2c(c1)N(C)C(=O)CO2 [Compound 196] | > 20 µM | 2580 nM | – |
| CN(CCN)Cc1c[nH]nc1-c1ccc(OCCCO)cc1 [Compound 195] | 7.18 µM | 402 nM | – |
| COCCCOc1ccc(-c2n[nH]cc2CN(C)CCN)cc1 [Compound 179] | 0.03 µM | – | – |
| CNCCN(C)Cc1c[nH]nc1-c1ccc(OCCCOC)c(Cl)c1 [Compound 228] | 0.279 µM | 316 nM | – |
| CNCCN(C)Cc1cn(C2CCOC2)nc1-c1ccc(OC(C)C)cc1 (stereo not drawn) [Compound 215] | 7.47 µM | – | – |
| COc1ccc(-c2n[nH]cc2CN(C)CCN)c(C)c1 [Compound 155] | 10.6 µM | 977 nM | – |
| CC(C)CN1C(=O)COc2ccc(-c3n[nH]cc3CN(C)CCN)cc21 [Compound 191] | > 20 µM | 4110 nM | – |
| CN(CCN)Cc1c[nH]nc1-c1ccc(OCCN2CCOCC2)cc1 [Compound 172] | > 20 µM | 3260 nM | – |
| COc1ccc(-c2n[nH]cc2CN(C)CCN)cc1 [Compound 153] | 1.39 µM | 132 nM | – |
| CN(CCN)Cc1c[nH]nc1-c1ccc(Oc2ccccc2)c(C(=O)N(C)C)c1 [Compound 226] | > 20 µM | 7250 nM | – |
| CN(CCN)Cc1c[nH]nc1-c1cc(Cl)ccc1F [Compound 156] | 9.56 µM | 1710 nM | – |
| Cc1ccc(C#N)cc1-c1n[nH]cc1CN(C)CCN [Compound 158] | > 20 µM | – | – |
| Cc1cc(F)ccc1-c1n[nH]cc1CN(C)CCN [Compound 152] | 5.78 µM | 983 nM | – |
| CC(C)Oc1cc(-c2n[nH]cc2CN(C)CCN)ccc1F [Compound 188] | 12.3 µM | 2890 nM | – |
| NCCN(CCO)Cc1c[nH]nc1-c1ccc(F)cc1 [Compound 171] | > 20 µM | 2630 nM | – |
| CNCCN(C)Cc1cn[nH]c1-c1cc(F)cc(F)c1 [Compound 18] | – | 483 nM | – |
| CN(CCN)Cc1n[nH]cc1-c1ccc(Oc2ccccc2)cc1 [Compound 203] | 1.72 µM | 185 nM | – |
| CN(CCN)Cc1c[nH]nc1-c1ccc(Oc2cccc(F)c2)cc1 [Compound 205] | 1.69 µM | 286 nM | – |

| SMILES | EC30 [1, 2] | IC50 (human PRMT8) | EC30 [1, 3] |
| --- | --- | --- | --- |
| CC(C)Oc1ccc(-c2c(CN(C)CCN)cnn2C)cc1 [Compound 177] | 0.295 µM | – | – |
| CCOC(=O)c1cccc(-c2n[nH]cc2CN(C)CCN)c1 [Compound 150] | 6.66 µM | 566 nM | – |
| CN(CCN)Cc1c[nH]nc1-c1ccc(Oc2ccc(F)cc2)cc1 [Compound 225, N^1-((3-(4-(4-fluorophenoxy)phenyl)-1H-pyrazol-4-yl)methyl)-N^1-methylethane-1,2-diamine] | 0.688 µM | 35.8 nM | – |
| CN(CCN)Cc1c[nH]nc1-c1ccc2c(c1)NC(=O)CO2 [Compound 173] | > 20 µM | 3080 nM | – |
| Cc1cc(-c2n[nH]cc2CN(C)CCN)cc(C)c1OC(C)C [Compound 199, N^1-((3-(4-isopropoxy-3,5-dimethylphenyl)-1H-pyrazol-4-yl)methyl)-N^1-methylethane-1,2-diamine] | 2.82 µM | 459 nM | – |
| CNCCN(C)Cc1cn(C2CCCC2)nc1-c1ccc(OC(C)C)cc1 [Compound 214] | 2.25 µM | – | – |
| Cc1ccc(-c2n[nH]cc2CN(C)CCN)cc1 [Compound 162] | 1.34 µM | 273 nM | – |
| CNCCN(C)Cc1n[nH]cc1-c1ccc(OC(C)C)c(Cl)c1 [Compound 212] | 0.238 µM | 40.3 nM | – |
| CC(C)CN(C)C(=O)c1ccc(-c2n[nH]cc2CN(C)CCN)cc1 [Compound 164] | 18.5 µM | 2180 nM | – |
| CC(C)Oc1cccc(-c2n[nH]cc2CN(C)CCN)c1 [Compound 187] | 7.07 µM | 1700 nM | – |
| CC(C)CN1C(=O)COc2cc(-c3n[nH]cc3CN(C)CCN)ccc21 [Compound 193] | 9.72 µM | 845 nM | – |
| CNCCN(C)Cc1cn(C(C)C)nc1-c1ccc(F)cc1 [Compound 15] | > 20 µM | – | – |
| CNCCN(C)Cc1cnn(C)c1-c1ccc(Oc2ccccc2)cc1 [Compound 208] | 0.696 µM | 279 nM | – |
| CN(CCN)Cc1c[nH]nc1-c1ccc2c(c1)OCC(=O)N2C [Compound 192] | > 20 µM | 2010 nM | – |
| CNCCN(C)Cc1cn(C2CC2)nc1-c1ccc(F)cc1 [Compound 13] | > 20 µM | – | – |
| COc1ccc(-c2n[nH]cc2CN(C)CCN)c(Cl)c1 [Compound 146] | 7.16 µM | 1120 nM | – |
| CCN(C)C(=O)c1cccc(-c2n[nH]cc2CN(C)CCN)c1 [Compound 198] | > 20 µM | – | – |
| CCn1cc(CN(C)CCNC)c(-c2ccc(OC(C)C)cc2)n1 [Compound 213] | 0.708 µM | – | – |
| CNCCN(C)Cc1cnn(C2CCOC2)c1-c1ccc(OC(C)C)cc1 (stereo not drawn) [Compound 216] | 0.726 µM | – | – |
| CNCCN(C)Cc1c[nH]nc1-c1ccc(OC(C)C)c(F)c1 [Compound 181] | 0.046 µM | – | – |
